Key:
[1] = system: MKN45 cells (human gastric cancer cell line); assay: WST-8 viable cell assay, 5FU and BCAA, MKN45 cells; type: cell-based; settings: 72 hr, BCAA 2 mM or 4 mM, 5FU 0.05-1 μg/ml
Protocol: MKN45 cells (human gastric cancer cell line) were plated in a 96 well plate at a concentration of 4000 cells/100 μl/well, and cultured under the following conditions for 72 hr: • LC medium (10% FBS) • LC medium +BCAA (2 mM or 4 mM) • LC medium +5FU (0.05 μg/ml, 0.1 μg/ml, 0.5 μg/ml or 1 μg/ml) • LC medium +BCAA (2 mM or 4 mM) +5FU (0.05 μg/ml, 0.1 μg/ml, 0.5 μg/ml or 1 μg/ml)
After 72 hr, WST-8 reagent was added (10 μl/well) and, after color development for 1 hr, the absorbance of OD 450 nm was measured. The absorbance of each group was shown by a is relative value provided that the absorbance of a non-stimulation group was assumed to be 1000. WST-8 is reduced by intracellular dehydrogenase to produce water-soluble formazan. By directly measuring the absorbance of formazan at 450 nm, the number of viable cells can be easily measured. The cell number and the amount of produced formazan are in a linear proportional correlation.

[2] = system: human breast cancer cell line MDA-MB231; assay: Growth of MDA-MB231 cells (cell number, Hoechst staining); type: cell-based; settings: 5 days, 5-FU 0.25 μg/ml, BCAA 4 mM
Protocol: MDA-MB231 cells were suspended in RPMI-10% (RPMI medium containing 10% FBS), and plated in a plate at 2000 cells/well. The next day, the medium was exchanged to those shown below, and the cells were further cultured for 5 days. • group 1: RPMI-10% • group 2: RPMI-10% containing BCAA (4 mM) • group 3: RPMI-10% containing 5-FU (0.25 μg/m1) • group 4: RPMI-10% containing 5-FU (0.25 μg/ml) +BCAA (4 mM)
After 5 days, cellular nucleus was stained with Hoechst reagent, and the cell number was counted. In groups 1 and 2, cells were stained with anti-CD44 antibody, and the ratio of CD44 positive cells was analyzed by Array Scan using fluorescence microscopic quantification apparatus (Thermo Fisher).

HAK1B cells = assay: HAK1B subcutaneous transplant in nude mice, tumor weight and volume; type: in vivo, BALB/c nude mice; settings: 5FU 250 μg/tumor into the tumor, 3(w/w)% BCAA mixed feed for 2 weeks, vs control group
Protocol: HAK1B cells were subcutaneously transplanted to 7-week-old female BALB/c nude mice (purchased from Japan Charles River) at 7,000,000 cells/mouse. After 1 week, the mice were grouped based on the tumor area. 5FU 250 μg/tumor (vehicle 10% DMSO/DW) was administered into the tumor (see Cancer Research, 70(11), 4687-4697, 2010), as well as a 3(w/w) % BCAA mixed feed or a 3(w/w) % casein mixed feed was given for 2 weeks. That is, treatments of 4 groups are as described below: • group 1: vehicle+casein mixed feed (control group) • group 2: 5FU+casein mixed feed • group 3: vehicle+BCAA mixed feed • group 4: 5FU+BCAA mixed feed
Using a vernier caliper, the tumor volume (longest Diameter×shortest diameter×height (mm^3)) was measured from the outer side of the tumor to monitor time-course changes in the tumor volume. On day 43, autopsy was performed, and the weight and volume of the tumor were measured.

[3] = system: human hepatic cancer cell line HAK4; assay: Annexin V apoptosis, combined use of 5FU and BCAA, HAK4 cells; type: cell-based; settings: 72 hr, BCAA 2 mM, 5FU 2.5 μg/ml
Protocol: Human hepatic cancer cell line HAK4 cells were plated at a concentration of 3000 cells/well in a plate, and cultured 30 under the following conditions for 72 hr: • LC 2.5% medium • BCAA (2 mM) • 5FU (2.5 μg/ml) • BCAA (2 mM)+5FU (2.5 μg/ml)
(§1) After 72 hr, using ApoAlert Annexin V-FITC Apoptosis kit (Clontech), the cells were stained with annexin V and fixed, and apoptotic cells (%) were detected by Array Scan (Thermo Fisher).
To be specific, the cells in the 96 well plate were rinsed with 1×Binding Buffer, 40 μl of 1×Binding Buffer containing annexin V (1 μl) was added to each well, and the cells were incubated in the dark at room temperature for 5-15 min. The cells were washed, and fixed with 2% formaldehyde. 100 μl of PBS containing Hoechst33258 solution was added, and the cells were incubated in the dark for 5 min, and apoptotic cells (%) were detected by Array Scan.

[4] = system: HCT116 cells (human colorectal cancer cell line); assay: Annexin V apoptosis, combined use of 5FU and BCAA, HCT116 cells; type: cell-based; settings: 72 hr, BCAA 2 mM, 5FU 2 μg/ml
Protocol: HCT116 cells (human colorectal cancer cell line) were plated at a concentration of 4000 cells/well in a plate, and cultured under the following conditions for 72 hr: • LC 2.5% medium • BCAA (2 mM) • 5FU (2 μg/ml) • BCAA (2 mM)+5FU (2 μg/ml)
as §1

O=c1[nH]cc(F)c(=O)[nH]1 [5FU, 5-fluorouracil]
number of viable cells (WST-8, OD 450 nm) [1]: decreased | number of viable cells (cell number) [2]: decreased | tumor volume (HAK1B cells): significantly decreased | tumor weight (HAK1B cells): significantly decreased | apoptotic cells (Annexin V positive cells) [3]: increased | apoptotic cells (Annexin V positive cells) [4]: increased

— patent publication US20130324541A1, “POTENTIATOR OF ANTITUMOR ACTIVITY OF CHEMOTHERAPEUTIC AGENT” (Ajinomoto Co., Inc., priority 2011, published 2013)
